These results are taken from patent publication US5079243A, “Benzazepines” (Novo Nordisk A/S, priority 1989, dated 1992).

The ED50 is the dose at which the effect has come halfway, by size or by number of responders. Read a high ED50 as a need for a large dose.

The test system of this assay is stereotyped gnawing behaviour in mice induced by methylphenidate. Description: methylphenidate induced gnawing test in mice. The class given is in vivo. The settings on record: Mus musculus.

Regarding `COCOc1cc2c(cc1Cl)CCN(C)CC2c1cccc2ccoc12` (single isomer, unassigned; (+)) [Example 1, (+)-5-(7-benzofuranyl)-8-chloro-7-methoxymethyloxy-3-methyl-2,3,4,5-tetrahydro-1H-3-benzazepine], the 50% effective dose (ED50) was 2 mg/kg.

In turn, `COCOc1cc2c(cc1Cl)CCN(C)CC2c1cccc2c1OCC2` (single isomer, unassigned; (+)) [Example 2, (+)-8-chloro-5-(2,3-dihydro-benzofuran-7-yl)-7-methoxy-methyloxy-3-methyl-2,3,4,5-tetrahydro-1H-3-benzazepine] gave an ED50 of 5.4 mg/kg.
